Reference: the Kinase Knowledgebase extract (Sharma et al. 2016)

Experiments:
PIK3CG (human) = PIK3CG (human) (UniProt P48736); assay: Inhibition of PIK3CG Kinase Activity
PIK3CA (human) = PIK3CA (human) (UniProt P42336); assay: Inhibition of PIK3CA Kinase Activity
Chain of PIK3CA (human) (P42336 whole entry, looked up): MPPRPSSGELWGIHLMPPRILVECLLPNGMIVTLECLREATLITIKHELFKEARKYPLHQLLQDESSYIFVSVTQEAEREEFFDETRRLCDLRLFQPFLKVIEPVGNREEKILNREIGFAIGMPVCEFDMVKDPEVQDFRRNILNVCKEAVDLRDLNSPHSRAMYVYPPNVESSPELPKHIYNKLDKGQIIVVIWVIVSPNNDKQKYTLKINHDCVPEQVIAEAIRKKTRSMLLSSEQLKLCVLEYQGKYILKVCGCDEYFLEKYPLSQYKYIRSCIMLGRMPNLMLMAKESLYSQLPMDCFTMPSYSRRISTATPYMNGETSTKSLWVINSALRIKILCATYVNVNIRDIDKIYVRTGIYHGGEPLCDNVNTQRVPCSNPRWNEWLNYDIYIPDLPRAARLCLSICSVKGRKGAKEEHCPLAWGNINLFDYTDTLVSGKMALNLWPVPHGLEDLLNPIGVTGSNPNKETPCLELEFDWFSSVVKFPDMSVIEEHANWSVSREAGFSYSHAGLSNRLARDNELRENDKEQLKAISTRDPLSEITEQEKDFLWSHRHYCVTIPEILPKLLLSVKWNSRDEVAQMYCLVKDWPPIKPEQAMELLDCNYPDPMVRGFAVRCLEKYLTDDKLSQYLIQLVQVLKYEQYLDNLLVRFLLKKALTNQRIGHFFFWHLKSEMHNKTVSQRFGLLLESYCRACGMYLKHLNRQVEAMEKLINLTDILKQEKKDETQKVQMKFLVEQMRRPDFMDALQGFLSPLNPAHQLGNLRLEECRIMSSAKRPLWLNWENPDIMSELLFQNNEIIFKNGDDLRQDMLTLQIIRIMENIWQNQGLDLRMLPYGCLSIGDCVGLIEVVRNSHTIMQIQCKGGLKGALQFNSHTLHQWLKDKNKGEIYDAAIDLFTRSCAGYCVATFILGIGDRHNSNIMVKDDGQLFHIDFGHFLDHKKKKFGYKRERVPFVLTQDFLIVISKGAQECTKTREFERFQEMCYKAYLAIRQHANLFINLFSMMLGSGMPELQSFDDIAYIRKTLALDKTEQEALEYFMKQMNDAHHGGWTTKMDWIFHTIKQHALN

Chain of PIK3CG (human) (P48736 whole entry, looked up): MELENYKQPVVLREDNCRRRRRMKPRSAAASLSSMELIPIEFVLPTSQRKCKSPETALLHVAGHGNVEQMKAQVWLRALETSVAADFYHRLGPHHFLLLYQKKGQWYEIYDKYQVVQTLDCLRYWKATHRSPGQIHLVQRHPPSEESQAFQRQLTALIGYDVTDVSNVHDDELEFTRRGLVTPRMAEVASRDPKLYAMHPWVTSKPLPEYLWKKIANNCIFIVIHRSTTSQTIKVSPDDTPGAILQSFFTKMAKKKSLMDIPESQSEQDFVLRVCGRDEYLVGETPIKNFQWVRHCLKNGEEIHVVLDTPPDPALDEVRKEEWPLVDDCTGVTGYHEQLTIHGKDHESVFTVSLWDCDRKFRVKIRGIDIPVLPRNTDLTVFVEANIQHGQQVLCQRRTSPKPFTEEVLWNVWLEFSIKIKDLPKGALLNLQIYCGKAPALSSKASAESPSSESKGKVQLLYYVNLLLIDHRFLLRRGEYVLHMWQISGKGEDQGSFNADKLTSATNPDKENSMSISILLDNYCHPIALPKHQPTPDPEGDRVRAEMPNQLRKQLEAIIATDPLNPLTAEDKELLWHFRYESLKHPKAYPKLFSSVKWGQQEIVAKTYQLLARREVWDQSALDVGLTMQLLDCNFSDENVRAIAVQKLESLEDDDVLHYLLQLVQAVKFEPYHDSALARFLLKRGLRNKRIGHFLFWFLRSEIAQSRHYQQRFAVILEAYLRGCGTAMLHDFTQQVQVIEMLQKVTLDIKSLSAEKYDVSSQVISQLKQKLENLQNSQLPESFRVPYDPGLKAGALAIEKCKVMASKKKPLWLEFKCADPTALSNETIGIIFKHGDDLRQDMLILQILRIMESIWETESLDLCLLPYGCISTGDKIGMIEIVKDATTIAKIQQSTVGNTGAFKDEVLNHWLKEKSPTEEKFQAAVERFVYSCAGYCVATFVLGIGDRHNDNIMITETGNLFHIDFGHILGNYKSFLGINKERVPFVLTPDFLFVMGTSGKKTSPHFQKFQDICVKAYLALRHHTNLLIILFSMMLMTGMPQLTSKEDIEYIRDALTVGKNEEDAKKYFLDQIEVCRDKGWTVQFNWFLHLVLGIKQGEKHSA

| SMILES | IC50 (PIK3CG (human)) | IC50 (PIK3CA (human)) |
| --- | --- | --- |
| Cn1ccc2c3nc(-c4ccc(N)cc4)nc(N4CCOCC4)c3ccc21 | 10 µM | – |
| Cn1ccc2c3nc(-c4cccc5[nH]ccc45)nc(C4COCCN4)c3ccc21 (stereo not drawn) | 4.66 µM | 6.31 µM |
| CN1CCN(C(=O)Nc2ccc(-c3nc(N4CCOCC4)c4ccc5c(ccn5C)c4n3)cc2)CC1 | 10 µM | – |
| CCCNC(=O)Nc1ccc(-c2nc(N3CCOCC3)c3ccc4c(ccn4C)c3n2)cc1 | 8.4 µM | 5.66 µM |
| Cn1ccc2c3nc(-c4cccc(C#N)c4)nc(N4CCOCC4)c3ccc21 | 2.77 µM | 4.28 µM |
| Cn1ccc2c3nc(-c4cccc(C(N)=O)c4)nc(N4CCOCC4)c3ccc21 | 7.42 µM | 2.56 µM |
| CN(C)CCCNC(=O)Nc1ccc(-c2nc(N3CCOCC3)c3ccc4c(ccn4C)c3n2)cc1 | 10 µM | – |
| Cn1ccc2c3nc(-c4ccc(C(=O)O)cc4)nc(N4CCOCC4)c3ccc21 | 9.84 µM | 12 µM |
